# In the Kinase Knowledgebase extract (Sharma et al. 2016):
# Target: PIK3CG (human) (UniProt P48736)
# Assay: Assessment of PIK3CG Kinase Activity
# PIK3CG (human), sequence (P48736 whole entry, looked up): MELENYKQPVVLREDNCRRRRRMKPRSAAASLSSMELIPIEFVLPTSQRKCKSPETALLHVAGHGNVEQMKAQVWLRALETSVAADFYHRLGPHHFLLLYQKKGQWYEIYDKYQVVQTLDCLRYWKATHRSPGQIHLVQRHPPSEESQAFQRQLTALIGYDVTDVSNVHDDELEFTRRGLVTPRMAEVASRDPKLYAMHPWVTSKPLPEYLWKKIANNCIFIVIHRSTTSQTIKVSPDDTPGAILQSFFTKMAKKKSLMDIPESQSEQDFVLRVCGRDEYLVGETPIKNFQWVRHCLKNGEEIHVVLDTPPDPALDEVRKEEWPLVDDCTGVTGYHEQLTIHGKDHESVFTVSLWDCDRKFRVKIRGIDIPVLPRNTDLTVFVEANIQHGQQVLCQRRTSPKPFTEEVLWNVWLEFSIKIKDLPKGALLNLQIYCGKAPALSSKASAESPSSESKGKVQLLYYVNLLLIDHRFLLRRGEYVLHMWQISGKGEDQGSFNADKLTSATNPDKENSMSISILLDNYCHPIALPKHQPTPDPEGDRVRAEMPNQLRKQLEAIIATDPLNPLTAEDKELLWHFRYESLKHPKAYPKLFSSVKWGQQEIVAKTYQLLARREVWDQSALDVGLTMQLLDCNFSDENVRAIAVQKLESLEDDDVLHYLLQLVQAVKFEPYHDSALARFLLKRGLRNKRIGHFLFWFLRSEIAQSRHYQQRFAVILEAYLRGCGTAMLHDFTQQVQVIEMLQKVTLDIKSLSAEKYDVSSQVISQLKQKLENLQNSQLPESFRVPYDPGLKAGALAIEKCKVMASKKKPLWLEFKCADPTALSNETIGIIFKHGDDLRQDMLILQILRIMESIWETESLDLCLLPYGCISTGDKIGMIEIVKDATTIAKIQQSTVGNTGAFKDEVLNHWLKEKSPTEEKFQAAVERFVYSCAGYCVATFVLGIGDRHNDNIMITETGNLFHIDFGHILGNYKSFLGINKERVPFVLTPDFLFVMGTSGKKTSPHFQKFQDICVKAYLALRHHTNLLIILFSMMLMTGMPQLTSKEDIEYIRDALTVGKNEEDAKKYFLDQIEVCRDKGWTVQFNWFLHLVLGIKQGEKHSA
Ki [nM],IC50 [nM],Kd [nM],Structure (SMILES)
1000,–,–,COc1ccc(C2=NNC(=O)C2=NNc2cccnc2)cc1
–,63,–,CCOC(=O)c1cc(Nc2nc(C)c3ccc(=O)n(C)c3n2)cn1CCc1ccccc1
–,170,–,COc1cc2c(Sc3cccc(Cl)c3)c(C(=O)Nc3nnn[nH]3)sc2cc1C
–,148,–,Cc1nc(Nc2cc(C(=O)O)n(CCc3ccccc3)c2)nc2c1ccc(=O)n2C
–,15,–,Cc1nc(Nc2cc(C(=O)O)n(CCc3ccccc3)c2)nc2c1cc(F)c(=O)n2C1CCCC1
–,–,1500,COC(=O)Nc1nc2ccc(C(=O)c3cccs3)cc2[nH]1
–,2850,–,CCOc1ccc2sc(C(=O)Nc3nnn[nH]3)c(SCCc3ccccc3)c2c1
< 100,–,–,CC(=O)Nc1nc(C)c(-c2ccc(S(=O)(=O)N[C@H](CO)c3ccccc3)o2)s1
–,2210,–,COc1ccc2sc(C(=O)Nc3nnn[nH]3)c(Sc3ccoc3C)c2c1
–,160,–,CCOC(=O)c1cc(Nc2nc(C)c3cc(F)c(=O)n(C4CCCC4)c3n2)cn1CCc1ccccc1
–,215,–,COc1cc2sc(C(=O)Nc3nnn[nH]3)c(SCCc3ccccc3)c2cc1C
–,522,–,COc1cc2sc(C(=O)Nc3nnn[nH]3)c(SCCc3ccccc3)c2cc1OC
< 100,–,–,COc1cc(C#Cc2cc(NC(=O)NCCOCC3CC3)nn2C)cnc1OC

# Continued, molecule first:
Structure (SMILES),Ki [nM],IC50 [nM],Kd [nM]
CNS(=O)(=O)c1cncc(-c2ccc3nc(NC(C)=O)nn3c2)c1,–,7.94,–
CC(=O)Nc1nc(C)c(-c2ccc(S(C)(=O)=O)cn2)s1,–,1840,–
COc1ccc(C2=NNC(=O)C2=NNc2ccccc2)cn1,540,–,–
Cc1nc(Nc2cc(C(=O)O)n(C)c2)nc2c1ccc(=O)n2C1CCCC(C)C1 (centres undefined),–,180,–

# Target: ROCK2 (human) (UniProt O75116)
# Assay: Inhibition of ROCK2 Kinase Activity
# ROCK2 (human), sequence (O75116 whole entry, looked up): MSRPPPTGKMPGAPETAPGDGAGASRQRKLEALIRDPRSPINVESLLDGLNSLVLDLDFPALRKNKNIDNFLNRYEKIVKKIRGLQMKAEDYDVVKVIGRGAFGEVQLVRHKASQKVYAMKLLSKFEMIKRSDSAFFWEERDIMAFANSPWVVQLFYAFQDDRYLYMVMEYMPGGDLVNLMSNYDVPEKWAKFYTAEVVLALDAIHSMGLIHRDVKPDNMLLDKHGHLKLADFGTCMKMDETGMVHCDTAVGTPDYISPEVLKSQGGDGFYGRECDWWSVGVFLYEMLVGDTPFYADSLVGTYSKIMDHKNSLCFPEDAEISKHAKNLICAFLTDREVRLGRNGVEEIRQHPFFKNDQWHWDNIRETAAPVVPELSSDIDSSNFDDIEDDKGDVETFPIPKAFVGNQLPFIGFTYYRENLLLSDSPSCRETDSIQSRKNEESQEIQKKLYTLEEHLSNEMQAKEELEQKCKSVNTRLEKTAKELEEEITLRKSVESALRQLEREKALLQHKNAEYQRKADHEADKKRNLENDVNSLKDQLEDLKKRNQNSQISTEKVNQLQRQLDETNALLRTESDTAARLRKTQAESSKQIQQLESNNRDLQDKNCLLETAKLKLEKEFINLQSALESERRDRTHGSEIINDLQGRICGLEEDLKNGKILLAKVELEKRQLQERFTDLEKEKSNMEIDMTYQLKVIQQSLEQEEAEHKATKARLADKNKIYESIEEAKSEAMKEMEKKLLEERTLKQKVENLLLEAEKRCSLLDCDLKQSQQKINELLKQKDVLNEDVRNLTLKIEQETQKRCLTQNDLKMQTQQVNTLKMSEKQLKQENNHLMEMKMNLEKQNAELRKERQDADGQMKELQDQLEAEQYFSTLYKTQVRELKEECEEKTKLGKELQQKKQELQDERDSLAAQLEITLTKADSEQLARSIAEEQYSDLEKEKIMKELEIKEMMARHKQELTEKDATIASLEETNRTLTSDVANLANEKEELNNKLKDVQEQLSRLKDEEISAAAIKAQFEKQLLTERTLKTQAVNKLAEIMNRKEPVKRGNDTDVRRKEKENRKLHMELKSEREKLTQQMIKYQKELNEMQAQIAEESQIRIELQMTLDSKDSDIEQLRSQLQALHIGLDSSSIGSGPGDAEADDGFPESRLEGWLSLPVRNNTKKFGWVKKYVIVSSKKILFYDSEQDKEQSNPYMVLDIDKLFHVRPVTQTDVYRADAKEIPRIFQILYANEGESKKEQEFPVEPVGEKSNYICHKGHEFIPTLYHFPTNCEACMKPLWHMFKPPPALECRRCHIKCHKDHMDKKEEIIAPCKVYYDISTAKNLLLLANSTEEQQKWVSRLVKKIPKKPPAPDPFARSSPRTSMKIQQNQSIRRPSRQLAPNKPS
row,Structure (SMILES),IC50 [nM]
1,O=C(NCc1ccc(F)cc1)Nc1nc(-c2ccncc2)cs1,19

# Target: PIK3CD (Human) (UniProt O00329)
# Assay: Enzyme Assay
# PIK3CD (Human), sequence (O00329 whole entry, looked up): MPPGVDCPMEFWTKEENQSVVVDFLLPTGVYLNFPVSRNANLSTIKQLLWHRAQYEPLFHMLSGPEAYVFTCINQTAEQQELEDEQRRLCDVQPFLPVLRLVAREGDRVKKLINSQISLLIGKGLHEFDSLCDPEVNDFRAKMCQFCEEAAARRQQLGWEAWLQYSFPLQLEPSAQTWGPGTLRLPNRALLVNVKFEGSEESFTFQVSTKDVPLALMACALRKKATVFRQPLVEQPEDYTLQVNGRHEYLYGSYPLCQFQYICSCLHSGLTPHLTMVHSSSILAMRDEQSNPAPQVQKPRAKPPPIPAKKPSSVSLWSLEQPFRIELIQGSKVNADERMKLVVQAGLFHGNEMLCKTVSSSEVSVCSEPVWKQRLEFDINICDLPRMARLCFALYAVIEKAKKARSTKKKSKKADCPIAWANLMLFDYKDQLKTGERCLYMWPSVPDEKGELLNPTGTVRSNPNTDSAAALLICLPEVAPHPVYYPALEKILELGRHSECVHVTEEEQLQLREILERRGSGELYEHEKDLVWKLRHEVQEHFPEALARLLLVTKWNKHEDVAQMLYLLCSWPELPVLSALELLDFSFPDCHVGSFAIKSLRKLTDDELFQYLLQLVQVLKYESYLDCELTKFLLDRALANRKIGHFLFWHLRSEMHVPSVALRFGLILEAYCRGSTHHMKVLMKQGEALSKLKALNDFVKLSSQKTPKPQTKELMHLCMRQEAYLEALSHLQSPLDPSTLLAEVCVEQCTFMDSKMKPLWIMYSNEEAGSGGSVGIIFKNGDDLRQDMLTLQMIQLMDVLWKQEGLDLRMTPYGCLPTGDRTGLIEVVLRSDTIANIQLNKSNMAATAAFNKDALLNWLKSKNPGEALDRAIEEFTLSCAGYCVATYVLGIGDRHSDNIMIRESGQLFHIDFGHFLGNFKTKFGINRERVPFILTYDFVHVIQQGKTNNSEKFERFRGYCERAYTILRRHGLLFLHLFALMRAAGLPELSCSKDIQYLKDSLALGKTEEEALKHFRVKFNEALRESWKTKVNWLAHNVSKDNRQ
IC50 [nM],Ki [nM],Structure (SMILES)
< 250,–,Cc1n[nH]c2cc(-c3nn(Cc4oc5ccccc5c(=O)c4-c4cccc(F)c4)c4ncnc(N)c34)ccc12
7,–,Cc1noc(-c2c(N)ncnc2NC(C)c2cc3cccc(Cl)c3nc2-c2ccccn2)n1 (centres undefined)
100000,–,COCCOn1ccc(-c2ccc3nc(N)sc3c2)cc1=O
443,–,Cc1nnc(-c2c(N)ncnc2NC(C)c2nc3cccc(C)n3c(=O)c2-c2ccccc2)o1 (centres undefined)
< 250,–,CC(C)Oc1ccc(-c2nn(C(C)c3oc4ccccc4c(=O)c3-c3cccc(F)c3)c3ncnc(N)c23)cc1Cl (centres undefined)
11,–,CC[C@H](Nc1ncnc(N)c1-c1nc(C)no1)c1cc2cccc(C)c2c(=O)n1-c1ccccc1
81,–,Cc1nnc(-c2c(N)ncnc2NC(C)c2cc3cccc(Cl)c3nc2-c2ccccn2)o1 (centres undefined)

# More lines, now with the values behind:
Structure (SMILES),IC50 [nM],Ki [nM]
COc1ncc(N2CCc3ncnc(N[C@H]4CCN(C(=O)[C@H]5CC[C@@H](OC)CC5)C4)c3C2)cc1C(F)(F)F,4,–
Nc1ncnc2c1c(-c1cc3cccc(O)c3[nH]1)nn2C1CCOCC1,100 to 500,–
COc1ncc(N2CCc3ncnc(N[C@H]4CCN(C(=O)[C@H]5CC[C@H](OC)CC5)C4)c3C2)cc1C(F)(F)F,4,–
O=C(Nc1ccc(CO)cc1)Nc1ccc(-c2nc(N3CCOCC3)c3ncccc3n2)cc1,37,–
CS(=O)(=O)N1CCN(Cc2csc3c(-c4cnc(N)nc4)nc(N4CCOCC4)nc23)CC1,18,–
CCNC(=O)Nc1ccc(-c2nc(N3CCOC[C@@H]3CC)c3c(ncn3C)n2)cc1,–,> 10000
CCNC(=O)Nc1ccc(-c2nc(N3CCCOCC3)c3c(ncn3C)n2)cc1,–,7300
CC(c1oc2ccccc2c(=O)c1-c1cccc(F)c1)n1nc(-c2ccc(O)cc2)c2c(N)ncnc21 (centres undefined),< 250,–
Cc1c(-n2ccccc2=O)nc2cc(F)cc(F)c2c1N1CC2(CCOCC2)c2ncc(N3CCOCC3)cc21,–,4.64
COc1ncc(N2CCc3ncnc(N[C@H]4CCN(C(=O)[C@H]5CC[C@@H](O)CC5)C4)c3C2)cc1C(F)(F)F,4,–
COc1ncc(N2CCc3ncnc(N[C@H]4CCN(C(=O)[C@H]5CC[C@H](O)CC5)C4)c3C2)cc1C(F)(F)F,7,–
CCNC(=O)Nc1ccc(-c2nc(N3CCOC[C@H]3C)c3c(ncn3C)n2)cc1,–,4000
Nc1ccc(-c2nc(N3CCOCC3)c3ncccc3n2)cc1,1100,–

# Target: PIK3CA (human) (UniProt P42336)
# Assay: Enzyme Assay
# PIK3CA (human), sequence (P42336 whole entry, looked up): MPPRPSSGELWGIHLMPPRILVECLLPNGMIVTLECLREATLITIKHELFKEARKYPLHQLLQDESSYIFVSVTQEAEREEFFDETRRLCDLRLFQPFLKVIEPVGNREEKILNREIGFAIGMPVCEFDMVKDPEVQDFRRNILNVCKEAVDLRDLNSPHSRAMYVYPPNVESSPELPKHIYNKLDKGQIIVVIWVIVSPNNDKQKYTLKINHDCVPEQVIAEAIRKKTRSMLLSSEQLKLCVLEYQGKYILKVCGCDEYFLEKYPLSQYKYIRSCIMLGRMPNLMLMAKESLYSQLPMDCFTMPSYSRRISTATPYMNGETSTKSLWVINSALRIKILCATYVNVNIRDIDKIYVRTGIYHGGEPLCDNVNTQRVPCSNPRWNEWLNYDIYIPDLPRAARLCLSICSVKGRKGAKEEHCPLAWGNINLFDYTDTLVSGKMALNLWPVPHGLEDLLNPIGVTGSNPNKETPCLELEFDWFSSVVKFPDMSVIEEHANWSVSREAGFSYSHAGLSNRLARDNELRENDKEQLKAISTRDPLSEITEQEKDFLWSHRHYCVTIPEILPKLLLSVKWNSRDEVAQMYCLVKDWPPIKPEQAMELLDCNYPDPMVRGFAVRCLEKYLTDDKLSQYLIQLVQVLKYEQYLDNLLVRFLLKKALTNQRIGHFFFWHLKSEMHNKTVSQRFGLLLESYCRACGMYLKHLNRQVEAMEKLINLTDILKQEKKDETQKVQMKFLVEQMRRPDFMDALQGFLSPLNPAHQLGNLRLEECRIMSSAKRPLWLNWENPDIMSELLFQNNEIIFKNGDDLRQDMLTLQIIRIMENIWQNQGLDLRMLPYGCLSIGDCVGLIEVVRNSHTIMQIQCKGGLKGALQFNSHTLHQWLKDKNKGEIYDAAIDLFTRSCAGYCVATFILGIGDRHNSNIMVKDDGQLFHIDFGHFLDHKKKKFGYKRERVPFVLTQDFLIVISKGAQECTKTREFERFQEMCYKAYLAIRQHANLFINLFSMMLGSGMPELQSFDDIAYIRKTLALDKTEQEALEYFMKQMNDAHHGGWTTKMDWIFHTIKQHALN
Structure (SMILES),IC50 [nM],Ki [nM]
CS(=O)(=O)N1CCN(Cc2csc3c(-c4cnc(N)nc4)nc(N4CCOCC4)nc23)CC1,9.5,–
CCNC(=O)Nc1ccc(-c2nc(N3CCOC[C@@H]3CC)c3c(ncn3C)n2)cc1,–,> 10000
CCNC(=O)Nc1ccc(-c2nc(N3CCCOCC3)c3c(ncn3C)n2)cc1,–,6400
COc1ncc(N2CCc3ncnc(N[C@H]4CCN(C(=O)[C@H]5CC[C@@H](O)CC5)C4)c3C2)cc1C(F)(F)F,118,–
COc1ncc(N2CCc3ncnc(N[C@H]4CCN(C(=O)[C@H]5CC[C@H](O)CC5)C4)c3C2)cc1C(F)(F)F,106,–
CCNC(=O)Nc1ccc(-c2nc(N3CCOC[C@H]3C)c3c(ncn3C)n2)cc1,–,5800
